In patent US20050075345A1, “Novel inhibitor compounds specific of secreted non-pancreatic human a2phospholipase of group II” (Yang Ji Chemical Company Ltd., priority 2001, published 2005):

Columns and labels:
[1] = system: ear edema induced by croton oil; test: Croton oil-induced ear edema test, local anti-inflammatory effect; format: in vivo, male ICR mice; details: mice, topical, 5 hours
Protocol: A-2: As animals, male ICR mice weighing 25 g were used.
A-4: To evaluate the in vivo anti-inflammatory effect of the inventive PMS compounds as listed above, the ear edema test was used as an acute inflammatory experimental model.
After inducing edema on one ear of mice by the application of croton oil, the sample of each of the PMS compounds as described above was dissolved in 80% chloroform. […] The other ear was applied only with the solvent, i.e., 80% chloroform.
After 5 hours of the initiation of the experiment, the ear tissue at the level of edema was collected by a gimlet from the skin, and the tissue collected was compared with one collected from the control part of the ear by a gimlet, to calculate the percent inhibition.
A-5: To calculate the statistical significance, the results obtained in each of the […] and the […] were evaluated by Student's t-test.

[2] = target: T1, human recombinant PLA2 (group II) (Homo sapiens, UniProt P14555); test: Fluorometric anti-PLA2 assay, human recombinant PLA2 (group II); format: biochemical; details: measured for fluorescence with human recombinant PLA2 (group II); read-out: Anti-PLA2 activity IC50 HPLA2
T1 sequence (P14555 21-144): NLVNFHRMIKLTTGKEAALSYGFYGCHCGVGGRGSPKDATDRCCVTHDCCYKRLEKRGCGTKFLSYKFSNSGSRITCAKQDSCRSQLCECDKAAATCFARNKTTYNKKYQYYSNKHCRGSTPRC
Protocol: (§1) Phospholipase A2 hydrolyzes an ester linkage at the sn-2 position of glycerophospholipid and liberates fatty acids and lysophospholipids. The in vitro action of particular compounds was evaluated by the analysis of fatty acids according to the fluorometric method described in Radvanyi et al., Anal. Biochem. 1989, 177. 103-109, and by the analysis of lysophospholipids according to the UV spectrophotometric method described in Reynolds et al., Anal. Biochem. 1992, 204, 190-197.
(§2) Enzymes used were two secretory enzymes of group II (human recombinant PLA2, and PLA2 basic subunit isolated from Crotalus durissus terrificus), and a secretory enzyme of porcine pancreatic (group I) PLA2.
(§3) Regarding substrates, palmitoyl-2-(10-pyrenyl decanoyl)-sn-glycero-3-phosphatidylglycerolic acid as a fluorescent substrate was used in the fluorometric method, and the lithium salt of 1,2-bis-(dihexanylthio)-dideoxy-rac-glycero-3-phosphorylglycerol was used in the UV spectrophotometric method.
(§4) The fluorometric analysis was performed using a Perkin Elmer LS50 luminescence spectrometer in a unit dosage polystyrene cell having a size of 1 cm. The exact concentration of the fluorescent substrate was determined by UV Unicam spectrometry in a quartz cell.
(§5) PLA2 is an enzyme that hydrolyzes an ester linkage at the sn-2 position of phospholipid. […] After hydrolysis with the enzyme, fluorescence emitted by the liberated fatty acid (pyrenyl decanoic acid) complex with bovine serum albumin (BSA) is increased, and strong fluorescence emission is observed at 378 and 398 nm. The principle of the analysis is to measure a difference in fluorescence at 398 nm in order to examine the production of fatty acids liberated for a given period of time, thus determining the PLA2 activity.
(§6) Measurement of the enzymatic activity was performed in a cell containing: 960 μl of Tris buffer; 50 mM HCl (pH 7.5); 0.5 M NaCl, 1 mM EGTA; and 1 μl substrate. This mixture was stirred under reflux for one minute to permit the formation of vesicles of substrate, and then, 10 μl of 10% SAB, 10 μl of solvent (ethanol or DMSO) or inhibitor solution, 10 μl of PLA2 to a given concentration and finally 10 μl of 1 M calcium chloride (CaCl2) for initiating the activity were successively added to the mixture under stirring.
(§7) Good conditions of measurement of the enzymatic activity include saturation of the enzyme, and thus, initial concentrations used are as follows: (i) human recombinant PLA2: 0.1 μl/ml; (ii) porcine pancreatic PLA2: 0.6 μl/ml; and (iii) Crotalus durissus terrificus (CB) PLA2: 0.05 μl/ml. Mother solution containing the inhibitor was prepared at an initial concentration of 10^−2 M.
(§8) The enzymatic activity is shown by a curve of which the original slope permits to calculate the initial velocity of the reaction. The following equation permits to calculate the enzymatic activity (A; μmol) of fatty acids liberated per minute. In the equation, S0 represents the slope of a curve in the absence of calcium (control), S the slope in the presence of calcium, V the volume (μl) of the substrate solution, and Fmax the signal of maximum fluorescence obtained at the end of the enzymatic reaction: [formula]
(§9) The residual activity in the presence of an inhibitor was evaluated by slopes obtained in the absence and presence of an inhibitor, according to the following equation: Residual activity (%)=(S−S0) in the presence of inhibitor/(S−S0) in the absence of inhibitor
(§10) Values obtained as a logarithmic function of the inhibitor concentrations used permit to determine the IC50 value, i.e., the inhibitor concentration required to cause 50% reduction of the enzymatic activity. The lower the IC50 value, the higher the inhibitory activity of a compound tested.

[3] = system: PLA2 of Crotalus durissus terrificus (group II); test: UV spectrophotometric anti-PLA2 assay, Crotalus durissus terrificus PLA2 (CB); format: biochemical; details: UV spectrophotometric method, read-out: Anti-PLA2 activity IC50 CB Spectro
Protocol: as §1, §2, §3
The UV spectrophotometric analysis was performed on an ELx 808 Ultra Micro Plate Reader apparatus (96-well plate).
Lysothiophospholipid (LTPL) liberated by the lypolytic action of PLA2 in the presence of calcium reacts with dithionitrobenzoic acid (DTNB) present in medium to form an LTPL-TNB complex and an TNB-anion which induces the yellowing of reaction medium.
The measurement of enzymatic activity is performed in a multiple well plate of which each well contains 190 μl of 1× buffer, 2 μl of 10 mM DTNB, […] of 20 mM substrate, 2 μl of solvent or inhibitor solution, and 2 μl of PLA2 at a given concentration. The plate was stirred and 2 μl of 1 M calcium chloride was added to initiate the enzymatic reaction. Substrate was used at a lower concentration than micellar critical concentration (about 1 mM) in a monomeric form, and the ratio of substrate to enzyme was respected. […]
(§11) Good conditions of measurement include saturation of enzyme. […] It calculated directly the initial velocity of the reaction. […]
(§12) 15 readings for each well (3 wells per concentration) were performed at intervals of 3 seconds.

[4] = system: PLA2 of Crotalus durissus terrificus (group II); test: Fluorometric anti-PLA2 assay, Crotalus durissus terrificus PLA2 (CB); format: biochemical; details: fluorometric method, read-out: Anti-PLA2 activity IC50 CB Fluo
Protocol: as §1, §2, §3, §4
as §5, with “activity. […]” for “activity.”
The residual activity in the presence of an inhibitor was evaluated by slopes obtained in the absence and presence of an inhibitor, according to the following equation: Residual activity (%)=(S−S0) in the presence of inhibitor/(S−S0) in the absence of inhibitor […]

[5] = target: T2, porcine pancreatic PLA2 (group I) (Sus scrofa, UniProt P00592); test: Fluorometric anti-PLA2 assay, porcine pancreatic PLA2 (group I); format: biochemical; details: measured for fluorescence with porcine pancreatic PLA2 (group I); read-out: Anti-PLA2 activity IC50 PPLA2
Protocol: as §1, §2, §3, §4, §5, §6, §7, §8, §9, §10

[6] = target: T2, porcine pancreatic PLA2 (group I); test: UV spectrophotometric anti-PLA2 assay, porcine pancreatic PLA2 (group I); format: biochemical; details: UV spectrophotometric method, read-out: Anti-PLA2 activity IC50 PPLA2 spectro
Protocol: as §1, §2, §3
The UV spectrophotometric analysis was performed on an ELx 808 Ultra Micro Plate Reader apparatus (96-well plate). […]
as §11, §12

[7] = system: carrageenan-induced edema; test: Carrageenan-induced edema test in rats; format: in vivo; details: dose of 10 mg/kg
Protocol: An in vivo activity assay was performed by a carrageenan-induced edema test in rats.
In the experimental protocol conducted, indomethacin as the reference product, or the compound No. 5, was administered intraperitoneally or orally at one hour before the injection of carrageenan into the hind leg of the rats. The volume of edema was measured at 0, 3 and 5 hours after the injection of carrageenan. The doses used were 5, 10 and 20 mg/kg for the two products tested.

T2 sequence (P00592 23-146): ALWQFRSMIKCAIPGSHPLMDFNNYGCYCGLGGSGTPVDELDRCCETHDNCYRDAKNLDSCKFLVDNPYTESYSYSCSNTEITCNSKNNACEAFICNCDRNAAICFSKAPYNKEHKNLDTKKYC

In the case of “1-[4′-(4,5-dihydro-1,2,4(4H)-5-oxo-oxadiazol-3-ylmethyl)benzoyl]-4-dodecylpiperazine [PMS 1314]”, the “Edema inhibition (%)” value ([1]; 1 mg/ear) is reported as 28.5 ± 6.85%.
For “1-[4′-(4,5-dihydro-1,2,4(4H)-5-oxo-oxadiazol-3-ylmethyl)benzyl]-4-tetradecylpiperazine [Compound 2]”, the IC50 [2] was greater than 10 µM and the “Edema inhibition (%)” value ([1]; 1 mg/ear, listed as PMS 1227) was 51.45 ± 11.67%.
For “1-[4′-(4,5-dihydro-1,2,4(4H)-5-oxo-oxadiazol-3-ylmethyl)benzyl]-4-tetradecylpiperazine [PMS 1281]”, the “Edema inhibition (%)” value ([1]; 1 mg/ear) was 47.83 ± 12.34%.
`CCCCCCCCCCCCCCCCCCN1CCN(C(=O)c2ccc(Cc3noc(=O)[nH]3)cc2)CC1` [Compound 6, 1-[4′-(4,5-dihydro-1,2,4(4H)-5-oxo-oxadiazol-3-ylmethyl)benzoyl]-4-octadecylpiperazine] gave an IC50 [2] of 0.8 µM, an IC50 [3] of 2 µM and an IC50 [4] of 1.5 µM.
In the case of `CCCCCCCCCCCCCCCCCCN1CCN(c2ccc(Cc3noc(=O)[nH]3)cc2)CC1` [Compound 10, 1-[4′-(4,5-dihydro-1,2,4(4H)-5-oxo-oxadiazol-3-ylmethyl)phenyl]-4-octadecylpiperazine], the IC50 [2] is reported as 2.71 µM and the IC50 [5] is reported as greater than 100 µM.
With `CCCCCCCCCCCCN1CC(C)N(C(=O)c2ccc(Cc3noc(=O)[nH]3)cc2)CC1C` (centres unmarked) [Compound 13, 1-[4′-(4,5-dihydro-1,2,4(4H)-5-oxo-oxadiazol-3-ylmethyl)benzoyl]-2,5-dimethyl-4-dodecylpiperazine] the IC50 [5] was greater than 100 µM and the “Edema inhibition (%)” value ([1]; 1 mg/ear) was 62.79 ± 3.23%.
For `CCCCCCCCCCCCCCCCCCN1CCN(C(=O)c2ccc(C=C3SC(=O)NC3=O)cc2)CC1` [Compound 14, [4-(4′-octadecylpiperazine-1′-ylcarbonyl)benzylidene]-1,3-thiazolidine-2,4-dione], the IC50 [6] was greater than 100 µM, the IC50 [2] was 0.28 µM and the IC50 [3] was 0.4 µM. It also gave an IC50 [5] of 10 µM and an IC50 [4] of 0.4 µM.
Compound `CCCCCCCCCCCCCCCCCCN1CCN(C(=O)c2ccc(CC3SC(=O)NC3=O)cc2)CC1` (centres unmarked) [Compound 15, 1-[4′-(2,4-dioxo-1,3-thiazolidin-5-ylmethyl)benzoyl]-4-octadecylpiperazine] has an IC50 [2] of 1 µM, an IC50 [3] of 2 µM and an IC50 [5] greater than 100 µM. It also gave an IC50 [4] of 1.4 µM.
Compound `CCCCCCCCCCCCCCN1CCN(Cc2ccc(Cc3noc(=O)[nH]3)cc2)C(=O)C1` [Example 7, 1-[4′-(4,5-dihydro-1,2,4(4H)-5-oxo-oxadiazol-3-ylmethyl)benzyl]-4-tetradecylpiperazin-2-one] has an IC50 [2] of 30 µM and an IC50 [5] greater than 100 µM.
`CCCCCCCCCCCCCCN1CCN(C(=O)c2ccc(Cc3noc(=O)[nH]3)cc2)CC1` [Example 8, 1-[4′-(4,5-dihydro-1,2,4(4H)-5-oxo-oxadiazol-3-ylmethyl)benzoyl]-4-tetradecylpiperazine] was tested, and the IC50 [2] was 18.7 µM and the IC50 [5] was greater than 100 µM.
`CCCCCCCCCCCCCCN1CCN(C(=O)c2ccc(CCCc3noc(=O)[nH]3)cc2)CC1` [Example 9, 1-[4′-(4,5-dihydro-1,2,4(4H)-5-oxo-oxadiazol-3-ylpropyl)benzoyl]-4-tetradecylpiperazine] showed an IC50 [2] of 5.3 µM and an IC50 [5] greater than 100 µM.
In the case of `COc1ccc2c(c1)c(CC(=O)O)c(C)n2C(=O)c1ccc(Cl)cc1` [Indomethacin, indomethacin], the inhibition of edema ([7]; intraperitoneal route, given one hour before carrageenan) is reported as 79%, the inhibition of edema ([7]; oral route, at 5 hours after the injection of carrageenan) is reported as 16% and the “Edema inhibition (%)” value ([1]; 0.5 mg/ear) is reported as 43.11 ± 8.79%.
